Assays:
Type in all cases: in vivo
[1] = system: Armyworm (Mythimna separata (Walker)); experiment: Test against armyworm, Potter tower method; details: for mortality at 12.5 µg/mL / mortality at 50 µg/mL / mortality at 500 µg/mL: Mythimna separata, third-instar larvae, after 72 hours, read-out: Activity (mortality) level against armyworm; for mortality at 12.5 µg/mL: 12.5 mg/L; for mortality at 50 µg/mL: 50 mg/L; for mortality at 500 µg/mL: 500 mg/L; for Activity against armyworm, further screening (in words): compared with chlorantraniliprole (D1)
In short: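 Third-instar larvae, ten per dish on corn leaf fragments, were sprayed in a Potter tower with 1 mL of compound in DMF diluted in 0.2% Tween 80, in triplicate. Mortality was scored after 72 h and reported as mean mortality against a solvent blank.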

[2] = system: Spodoptera litura (Fabricius); experiment: Test against Spodoptera litura, leaf disc dip; details: second-instar larvae, after 72 hours
Procedure: (§1) The test compound was dissolved in an appropriate solvent such as N,N-dimethylformamide, and then diluted with 0.2% aqueous solution of Tween 80 to the desired concentration, Those without the test compounds were set as blank controls, the treatments were replicated 3 times. The cabbage leaves were perforated to get 18 mm diameter leaf discs by a hole puncher, 5 leaf discs were dipped in the test solution for 10 seconds and then put into a Petri dish (diameter 90 mm) padded with moisturizing filter paper, after air-drying, the leaf discs were infested with no less than ten second-instar larvae of test insects which were starved for 4 hours, and then the dish was covered and placed in a chamber for culture. After 72 hours, the number of dead insects was investigated, the mortality was calculated, and the regression equation, correlation coefficient (r) and the median lethal concentration (LC50) were obtained using Probit analysis method.

[3] = system: Diamondback moth (Plutella xylostella (Linnaeus)); experiment: Test against diamondback moth, leaf disc dip; details: after 72 hours; for Activity against diamondback moth (in words): second-instar larvae
Procedure: as §1

Aphis fabae = experiment: Test against aphid, leaf dip method (Aphis fabae); details: foliar; for mortality at 12.5 µg/mL: 12.5 mg/L; for mortality at 12.5 µg/mL / mortality at 50 µg/mL / mortality at 200 µg/mL / mortality at 500 µg/mL: after 24 hours, read-out: Activity (mortality) level against Aphis fabae; for mortality at 50 µg/mL: 50 mg/L; for mortality at 200 µg/mL: 200 mg/L; for mortality at 500 µg/mL: 500 mg/L
In short: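 Horsebean seedlings carrying at least twenty 3-day-old Aphis fabae dipped 5 seconds in compound solutions (DMF, diluted in 0.2% aqueous Tween 80), three replicates with solvent blank. Live and dead insects counted after 24 hours.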

Compound | mortality at 12.5 µg/mL [1] [%] | mortality at 50 µg/mL [1] [%] | mortality at 500 µg/mL [1] [%] | Activity against armyworm, further screening (in words) [1] | Activity against Spodoptera litura (in words) [2] | LC50 ([3]; Plutella xylostella, foliar, read-out: Lethal medium concentration LC50 against diamondback moth) [µg/mL] | Activity against diamondback moth (in words) [3] | mortality at 12.5 µg/mL (Aphis fabae) [%] | mortality at 50 µg/mL (Aphis fabae) [%] | mortality at 200 µg/mL (Aphis fabae) [%] | mortality at 500 µg/mL (Aphis fabae) [%] | LC50 (Aphis fabae; further test, read-out: LC50 against Aphis fabae) [µg/mL]
CN(C)C(=O)c1cc(Cl)cc(Cl)c1N(C)C(=O)c1cc(Br)nn1-c1ncccc1Cl [Compound 11, N-[2,4-dichloro-6-[(dimethylamino)carbonyl]phenyl]-N-methyl-1-(3-chloro-2-pyridinyl)-3-bromo-1H-pyrazole-5-carboxamide] | 90 to 100 | 90 to 100 | 90 to 100 | excellent activity | high activity at very low concentration | < 1 | high activity at very low concentration | 90 to 100 | 90 to 100 | 90 to 100 | 90 to 100 | < 1
CCN(C)C(=O)c1cc(Cl)cc(Cl)c1N(C)C(=O)c1cc(Br)nn1-c1ncccc1Cl [Compound 12, N-[2,4-dichloro-6-[(methyl(ethyl)amino)carbonyl]phenyl]-N-methyl-1-(3-chloro-2-pyridinyl)-3-bromo-1H-pyrazole-5-carboxamide] | 90 to 100 | 90 to 100 | 90 to 100 | excellent activity | high activity at very low concentration | – | high activity at very low concentration | 90 to 100 | 90 to 100 | 90 to 100 | 90 to 100 | –

From patent publication US20220132846A1, “1-PYRIDYL-PYRAZOLYL AMIDE COMPOUNDS AND PREPARATION AND USES THEREOF” (HUNAN RESEARCH INSTITUTE OF CHEMICAL INDUSTRY CO., LTD., priority 2019, published 2022)
